# Data: patent US6342522B1, “Microbiocidal compositions” (priority 1998, dated 2002)
# Several values for one entry are separate records, joined by “and”; a condition that tells them apart may be missing. Equal values may be shown once.
# Experiments:
# Assay in all cases: MIC, two-fold serial dilutions in Malt Agar, synergism by Kull method
# Assay type in all cases: cell-based
# Penicillium sp. = test system: Penicillium sp.
# Description: (§1) Each test tube was inoculated to make about 5×10^5 fungi per mil. The lowest concentrations of each compound or mixtures to inhibit visible growth (turbidity) at 30° C. for the fungi for 7 days were taken as the minimum inhibitory concentration (MIC). The MIC were taken as end points of activity. End points for the mixtures of compound A (Guanadine component) and Compound B (second Component microbiocide) were then compared with the end points for the guanadine component A alone and compound B alone. Synergism was determined by a commonly used and accepted method described by Kull, F. C.; Eisman, P. C.; Sylwestrowicz, H. D. and Mayer, R. L. in Applied Microbiology 9:538-541 (1961) using the ratio determined by Qa/QA+Qb/QB==Synergy Index (SI) wherein:
# (§2) QA=concentration of compound A in parts per million (ppm), acting alone, which produced an end point.
# (§3) Qa=concentration of compound A in ppm, in the mixture which produced an end point.
# (§4) QB=concentration of compound B in ppm, acting alone which produced an end point.
# (§5) Qb=concentration of compound B in ppm, in the mixture which produced an end point.
# (§6) When the sum of Qa/QA and Qb/QB is greater than one, antagonism is indicated.
# (§7) The MIC values of each compound tested alone (QA or QB) are end-point activities except where the value is expressed as […]. In these cases, the end-point activity was not seen at the highest tested concentration. For purpose of calculation of the synergy index and for operational definition of MIC, the reported value could be an underestimate of the true MIC; thus the true synergy index could be even lower.
# Coriolus versicolor = test system: Coriolus versicolor
# Description: as §1, §2, §3, §4, §5, §6, §7
# Ophiostoma sp. = test system: Ophiostoma sp.
# Description: as §1, §2, §3, §4, §5, §6, §7
# Diplodia sp. = details: 30° C., 7 days
# Description: as §1, §2, §3, §4, §5, §6, §7
# Alternaria sp = test system: Alternaria sp
# Description: as §1, §2, §3, §4, §5, §6, §7
# Tyromyces palustris = details: 30° C., 7 days
# Description: as §1, §2, §3, §4, §5, §6, §7
molecule,measurement,setting,value
3-iodo-2-propynylbutyl carbamate [Iodocarb],"QB, end-point activity (MIC) of compound B acting alone","Penicillium sp.; Penicillium sp, 30° C., 7 days",4 ppm
same,"QB, end-point activity (MIC) of compound B acting alone","Coriolus versicolor; c versicolor, 30° C., 7 days",16 ppm
"N=C(N)NCCCCCCCCNCCCCCCCCNC(=N)N [Guazatine, 1,1-iminodi(octamethylene)diguanidine]","QA, end-point activity (MIC) of compound A acting alone","Penicillium sp.; Penicillium sp, 30° C., 7 days",128 ppm
same,"QA, end-point activity (MIC) of compound A acting alone","Ophiostoma sp.; Ophiosroma sp, 30° C., 7 days",1 ppm
same,"QA, end-point activity (MIC) of compound A acting alone",Diplodia sp.,64 ppm
same,"QA, end-point activity (MIC) of compound A acting alone","Alternaria sp; Alternaria sp, 30° C., 7 days",32 ppm
same,"QA, end-point activity (MIC) of compound A acting alone",Tyromyces palustris; T palustri,128 ppm
same,"QA, end-point activity (MIC) of compound A acting alone","Coriolus versicolor; c versicolor, 30° C., 7 days",32 ppm and 64 ppm
"CCCN(CCOc1c(Cl)cc(Cl)cc1Cl)C(=O)n1ccnc1 [Prochloraz, N-propyl-N-(2-(2,4,6-trichlorophenoxy)ethyl)-imidazole-1-carboximide]",MIC,"Penicillium sp.; Penicillium, 168 h, read-out: QB, end-point activity (MIC) of compound B acting alone",32 µg/mL
same,MIC,"Ophiostoma sp.; 168 h, read-out: QB, end-point activity (MIC) of compound B acting alone",2 µg/mL
same,MIC,"Alternaria sp; Alternaria, 168 h, read-out: QB, end-point activity (MIC) of compound B acting alone",4 µg/mL
same,MIC,"Tyromyces palustris; 168 h, read-out: QB, end-point activity (MIC) of compound B acting alone, T palustri",64 µg/mL
same,"QB, end-point activity (MIC) of compound B acting alone",Tyromyces palustris; T palustri,128 ppm
same,MIC,"Coriolus versicolor; Trametes versicolor, 168 h, read-out: QB, end-point activity (MIC) of compound B acting alone",4 µg/mL
